Experimental data: patent US10524469B2, “Acetate derived compounds from geranylorcinol. synthesis process for obtaining said compounds and use of said compounds as antifungal against Botrytis cinerea” (UNIVERSIDAD TÉCNICA FEDERICO SANTA MARÍA, priority 2015, dated 2020)
Read-outs that look alike come from different tables or passages of the source.

Tested on: Botrytis cinerea
Assay: Mycelial growth inhibition of B. cinerea, radial growth method in PDA
Assay type: cell-based
Conditions: for inhibition at 50 ppm / inhibition at 150 ppm / inhibition at 250 ppm: Botrytis cinerea; for Activity compared with the positive control when encapsulated in Pluronic F-127 micelle (in words): encapsulated in polymeric Pluronic F-127 micelle
Method: 20-40 milligrams of each of compounds 1 to 8 were dissolved in 500 microliters of Ethanol to have a stock solution of each compound according to its molecular weight. The stock solution was diluted in 5 mL of water so as to obtain a new stock solution of 5,000 ppm; from which corresponding aliquots were taken to achieve a final concentration on each plate with 50, 150 and 250 ppm potato dextrose agar (PDA) culture medium.
The method used for the preparation of polymeric micelles, based on Polycaprolactone (MW: 3.409 g/mol) or Pluronic® F-127 (MW: 12,500 g/mol) corresponds to the direct dissolution method consisting of the addition of the polymer to water with stirring and at room temperature, until the polymer dissolves to give a clear aqueous solution. The amount of polymer and water is chosen so as to have a solution of a concentration of 1×10^−3 M of polymer chains.
For the preparation of a solution of 50 mL of Pluronic F-127, 0.63 g is used and for the case of polycaprolactone 0.17 g is used.
The physical encapsulation of the compounds in the polymeric micelles (1×10^−3 M) is carried out by the emulsion method. The compound is dissolved in a volatile solvent (dichloromethane) and […] the polymer solution added in 100 μL aliquots to complete 400 μL reaching a concentration of 0.101 M of compound. By stirring in a vortex and applying ultrasound a very homogeneous milky emulsion is formed. The organic solvent is then removed by evaporation by heating the emulsion at 50° C. in a system open to air. Upon removal of the solvent, a clear solution remains containing the polymer forming micelles and the non-polar compounds which have been encapsulated in the hydrophobic micro-domain provided by the core of these polymeric micelles.
Subsequently, the solution is diluted by adding polymer solution corresponding to a 1×10^−3 M concentration until the compound of interest reaches a stock concentration in the range of 625-1,250 ppm in the micelle to be applied to the plate. This dilution should be done by adding polymer solution so as to maintain the same concentration of micelles and vary only the concentration of active ingredient.
In order to determine the inhibition of mycelial growth of B. cinerea, both for the free state and encapsulated compounds, the radial growth method in potato dextrose agar (PDA) culture medium was used. The compounds of interest in both free and encapsulated form were added to the PDA at different concentrations of 50, 150 and 250 ppm at a temperature of 50° C. Once the PDA had been solidified, a 4-mm diameter disc was seeded with mycelium of the pathogen in the center of the petri dish. The experiment consists of a negative control which is a petri dish where PDA culture medium and 1% Ethanol were added, in the case of Negative Control for encapsulated compounds it consists in adding only the micelle (polycaprolactone or Pluronic […]) free in PDA. In addition, a positive control containing commercially available fungicide Captan in PDA culture medium is included at the same concentrations tested in both its free form and also a positive control of Captan in its encapsulated form. Each treatment consisted of three replicates (n=3 replicates/compound/concentration).
After 48 (free state) and 72 (encapsulated system) hours of incubation at 23° C. under a photoperiod of 16 light hours/8 darkness hours, the mycelial growth inhibition percentage (MGIP) was calculated by assessing the measurement of the diameter of the fungus growth around the disc to calculate the mycelial growth inhibition area. In this way, the mycelial growth inhibition percentage that was compared to the corresponding controls after 48 hours of incubation was determined.

[1] = encapsulated in Pluronic F-127 (Triblock) micelles, 50 ppm, 72 hours
[2] = 48 h, read-out: Mycelial inhibition percentage of Botrityscinerea in vitro, free compound, 50 ppm in PDA, 48 hours of incubation
[3] = 48 h, read-out: Mycelial inhibition percentage of Botrityscinerea in vitro, free compound, 150 ppm in PDA, 48 hours of incubation
[4] = 48 h, read-out: Mycelial inhibition percentage of Botrityscinerea in vitro, free compound, 250 ppm in PDA, 48 hours of incubation
[5] = 72 h, read-out: Mycelial inhibition percentage of Botrityscinerea in vitro, encapsulated in Polycaprolactone (Diblock) micelles, 50 ppm, 72 hours
[6] = 72 h, read-out: Mycelial inhibition percentage of Botrityscinerea in vitro, encapsulated in Polycaprolactone (Diblock) micelles, 150 ppm, 72 hours
[7] = 72 h, read-out: Mycelial inhibition percentage of Botrityscinerea in vitro, encapsulated in Polycaprolactone (Diblock) micelles, 250 ppm, 72 hours
[8] = 72 h, read-out: Mycelial inhibition percentage of Botrityscinerea in vitro, encapsulated in Pluronic F-127 (Triblock) micelles, 50 ppm, 72 hours
[9] = 72 h, read-out: Mycelial inhibition percentage of Botrityscinerea in vitro, encapsulated in Pluronic F-127 (Triblock) micelles, 150 ppm, 72 hours
[10] = 72 h, read-out: Mycelial inhibition percentage of Botrityscinerea in vitro, encapsulated in Pluronic F-127 (Triblock) micelles, 250 ppm, 72 hours

Row | Compound | Mycelial inhibition percentage of Botrityscinerea in vitro [1] [%] | inhibition at 50 ppm [2] [%] | inhibition at 150 ppm [3] [%] | inhibition at 250 ppm [4] [%] | inhibition at 50 ppm [5] [%] | inhibition at 150 ppm [6] [%] | inhibition at 250 ppm [7] [%] | inhibition at 50 ppm [8] [%] | inhibition at 150 ppm [9] [%] | inhibition at 250 ppm [10] [%] | Activity compared with the positive control when encapsulated in Pluronic F-127 micelle (in words) | other results
1 | O=C1C2CC=CCC2C(=O)N1SC(Cl)(Cl)Cl (stereo not shown) [C+ (positive control), Captan, reference compound] | 98 |  |  |  |  |  |  |  |  |  |  | Mycelial inhibition percentage of Botrityscinerea in vitro (encapsulated in Pluronic F-127 (Triblock) micelles, 150 ppm, 72 hours): 99%; Mycelial inhibition percentage of Botrityscinerea in vitro (encapsulated in Pluronic F-127 (Triblock) micelles, 250 ppm, 72 hours): 99%; Mycelial inhibition percentage of Botrityscinerea in vitro (encapsulated in Polycaprolactone (Diblock) micelles, 50 ppm, 72 hours): 93%; Mycelial inhibition percentage of Botrityscinerea in vitro (encapsulated in Polycaprolactone (Diblock) micelles, 150 ppm, 72 hours): 99%; Mycelial inhibition percentage of Botrityscinerea in vitro (encapsulated in Polycaprolactone (Diblock) micelles, 250 ppm, 72 hours): 99%; Mycelial inhibition percentage of Botrityscinerea in vitro (free compound, 50 ppm in PDA, 48 hours of incubation): 87%; Mycelial inhibition percentage of Botrityscinerea in vitro (free compound, 150 ppm in PDA, 48 hours of incubation): 94%; Mycelial inhibition percentage of Botrityscinerea in vitro (free compound, 250 ppm in PDA, 48 hours of incubation): 94%
2 | CC(C)=CCC/C(C)=C/Cc1c(C)cc(O)cc1O [Formula 1] |  | 0 | 25 | 75 | 37 | 61 | 73 |  |  |  |  | Effect on the mycelium of the pathogen when encapsulated in polycaprolactone micelles (in words): slightly improved
3 | CC(C)=CCC/C(C)=C/Cc1c(C)cc(O)c(C/C=C(\C)CCC=C(C)C)c1O [Formula 2] | 85 | 25 | 61 | 93 | 16 | 36 | 37 | 81 to 99 | 91 | 96 | equal to the activity of the positive control | 
4 | CC(C)=CCC/C(C)=C/Cc1c(O)cc(C)cc1O [Formula 3] |  | 37 | 65 | 82 | 9 | 32 | 42 |  |  |  |  | Effect on the mycelium of the pathogen when encapsulated in polycaprolactone micelles (in words): inactive
5 | CC(C)=CCC/C(C)=C/Cc1c(O)cc(O)c(C/C=C(\C)CCC=C(C)C)c1C [Formula 4] | 82 | 12 | 56 | 83 | 93 | 94 | 97 | 81 to 99 | 92 | 96 | equal to the activity of the positive control | 
6 | CC(=O)Oc1cc(C)c(C/C=C(\C)CCC=C(C)C)c(OC(C)=O)c1 [Formula 5] |  |  |  |  |  |  |  |  |  |  |  | inhibition at 50 ppm (encapsulated in Polycaprolactone (Diblock) micelles, 50 ppm, 72 hours, read-out: Mycelial inhibition percentage of Botrityscinerea in vitro): 16%; inhibition at 150 ppm (encapsulated in Polycaprolactone (Diblock) micelles, 150 ppm, 72 hours, read-out: Mycelial inhibition percentage of Botrityscinerea in vitro): 39%; inhibition at 250 ppm (encapsulated in Polycaprolactone (Diblock) micelles, 250 ppm, 72 hours, read-out: Mycelial inhibition percentage of Botrityscinerea in vitro): 80%; inhibition at 50 ppm (free compound, 50 ppm in PDA, 48 hours of incubation, read-out: Mycelial inhibition percentage of Botrityscinerea in vitro): 24%; inhibition at 150 ppm (free compound, 150 ppm in PDA, 48 hours of incubation, read-out: Mycelial inhibition percentage of Botrityscinerea in vitro): 55%; inhibition at 250 ppm (free compound, 250 ppm in PDA, 48 hours of incubation, read-out: Mycelial inhibition percentage of Botrityscinerea in vitro): 78%
7 | CC(=O)Oc1cc(C)c(C/C=C(\C)CCC=C(C)C)c(OC(C)=O)c1C/C=C(\C)CCC=C(C)C [Formula 6] | 93 | 5 | 69 | 97 | 10 | 31 | 50 | 81 to 99 | 99 | 99 | equal to the activity of the positive control | 
8 | CC(=O)Oc1cc(C)cc(OC(C)=O)c1C/C=C(\C)CCC=C(C)C [Formula 7] |  | 8 | 51 | 82 | 32 | 35 | 59 |  |  |  |  | 
9 | CC(=O)Oc1cc(OC(C)=O)c(C/C=C(\C)CCC=C(C)C)c(C)c1C/C=C(\C)CCC=C(C)C [Formula 8] | 93 | 11 | 54 | 85 | 0 | 36 | 36 | 81 to 99 | 99 | 99 | equal to the activity of the positive control | 
